Assay results as given in patent publication US20240059738A1, “SWITCHING PEPTIDE AND MULTIPLEX IMMUNOASSAY METHOD USING SAME” (OPTOLANE TECHNOLOGIES INC., priority 2021, published 2024).

Tests used:
H2 peptide = experiment: FRET interaction between L1 and H2 peptides on microplate; format: binding; conditions: with increasing concentration of L1 peptide; FAM/TAMRA labels
Text: FIG. 4A is diagrams illustrating a method for confirming a specific interaction between L1 and H2 peptides and a specific interaction between L2 and H1 peptides and the measurement results thereof, and FIG. 4B is diagrams for explaining a specific interaction between L1 and H2 peptides and a specific interaction between L2 and H1 peptides analyzed using PyMOL software. Here, at the ends of the L1 and L2 peptides, a first fluorescent label, FAM (λex=488 nm, λem=532 nm) was modified, and at the ends of the H1 and H2 peptides, a second fluorescent label, TAMRA λex=532 nm, λem=570 nm) was modified. Meanwhile, the first peptide (L1 or L2) was immobilized on a parylene-H-coated microplate through a covalent bond between a formyl group of parylene-H and a primary amine group of a lysine residue in the peptide, and the second peptide (H2 or H1) was incubated with the immobilized first peptide (L1 or L2) to allow specific interactions between them.
Referring to FIG. 4A, the interaction between the L1 and H2 peptides was observed by changing the concentration of the L1 peptide, and the FRET intensity increased with increasing the concentration of the L1 peptide.

[1] = test system: rabbit anti-HRP antibodies (Fab region); experiment: Papain treatment of immobilized antibody with bound fluorescently labeled switching peptide (FIG. 6B); format: binding; conditions: after papain treatment compared to before
Text: FIG. 6A is a schematic diagram illustrating states before and after treatment of the antibody to which the four types of peptides of Example 1 were bound, respectively, with papain, which is a protease, and FIG. 6B is graphs illustrating a fluorescence intensity measured at a bottom (B) of the microplate and in a solution (S) after the papain treatment. In the case of this experiment, after immobilization of the antibodies (rabbit anti-HRP antibodies) on the microplate, binding between the antibody and the switching peptide was induced by treatment with a fluorescently labeled switching peptide, the unbound switching peptide was removed, and then the Fab region was hydrolyzed from the immobilized antibodies by adding papain, which is a protease.
Referring to FIG. 6A, the fluorescence at the bottom (B) of the microplate is expected to decrease after the papain reaction because the fluorescently labeled switching peptides are bound to the Fab region of antibodies, and the fluorescence in the solution is expected to increase because the Fab region to which the switching peptide is bound is hydrolyzed and dissolved into the solution. This prediction is proven to be true from the graphs of FIG. 6B.

Anti-HRP antibody(r) = experiment: Antigen-induced release of fluorescently labeled peptide from immobilized antibody (Table 2), HRP antigen; format: binding, rabbit; conditions: for remaining fluorescence intensity at plate bottom after antigen binding (% of before): anti-HRP antibodies from rabbits; for Bottom (B) of microplate Change (%) / fluorescence intensity Bottom (B) of microplate After antigen binding / fluorescence intensity Bottom (B) of microplate Before antigen binding / fluorescence intensity In solution (S) After antigen binding / fluorescence intensity In solution (S) Before antigen binding: anti-HRP antibody (rabbit), HRP
Anti-HBsAg antibody(g) = experiment: Antigen-induced release of fluorescently labeled peptide from immobilized antibody (Table 2), HBsAg antigen; format: binding, goat; conditions: for fluorescence intensity remaining at bottom of plate after antigen (% of before): anti-HBsAg antibodies from goats; for Bottom (B) of microplate Change (%) / fluorescence intensity Bottom (B) of microplate After antigen binding / fluorescence intensity Bottom (B) of microplate Before antigen binding / fluorescence intensity In solution (S) After antigen binding / fluorescence intensity In solution (S) Before antigen binding: anti-HBsAg antibody (goat), HBsAg
Anti-hCG antibody(m) = experiment: Antigen-induced release of fluorescently labeled peptide from immobilized antibody (Table 2), hCG antigen; format: binding; conditions: anti-hCG antibody (mouse)
Anti-CRP antibody(r) = experiment: Antigen-induced release of fluorescently labeled peptide from immobilized antibody (Table 2), CRP antigen; format: binding; conditions: anti-CRP antibody (rabbit)
[2] = test system: anti-HRP antibody from a rabbit; experiment: One-step immunoassay with varying HRP concentration (FIGS. 7A-7C); format: binding; conditions: HRP 0.3 to 100 μM; for Kd: estimated, read-out: Equilibrium dissociation constants
Text: FIG. 7A is a schematic diagram for explaining an immunoassay method using fluorescently labeled peptide compounds of Example 1, and FIGS. 7B and 7C are graphs illustrating the fluorescence intensities in a solution and at a bottom of the microplate depending on a concentration of the antigen measured by the immunoassay method illustrated in FIG. 7A. In this experiment, an anti-HRP antibody from a rabbit immobilized on a microplate was used as the binding antibody and HRP was used as the antigen.

[3] = test system: hepatitis B surface antigen-antibody; experiment: Antibody binding properties (fluorescence signal) of switching peptides at pH 6.0 to 8.0
Experimental: (§1) Regarding the antibody binding properties of the switching peptides at pH 6.0 to 8.0, a net charge of H1 and L2 peptides decreased to 0.5 at pH 6.0 to 7.0 due to a histidine residue with a pKa value of 6.02. In addition, the net charge of the H2 and L2 peptides decreased to 0.5 at pH 7.0 to 8.0 due to a cysteine residue with a pKa value of 8.18. […] Therefore, the immunoassay was performed by selecting an L1 peptide having specific dissociation from hepatitis B surface antigen-antibody binding and stability within a pH range of human serum immunoassay.

HRP, CRP, HBsAg, and hCG = test system: HRP, CRP, HBsAg, and hCG
Experimental: After immobilizing the hepatitis B surface antigen (HBsAg)-antibody detected using the immunoassay of the peptide compounds of Example 1 on a microplate, L1 peptide was added, and 0.04 to 30 μg/ml of the hepatitis B surface antigen was treated.

[4] = Net charge of switching peptides at pH 6.0 to 8.0; format: physicochemical; conditions: pH 7.0 to 8.0; cysteine residue pKa 8.18
Experimental: as §1

Row | Sequence | decrease of fluorescence intensity at the bottom of the microplate [1] [%] | increase of fluorescence intensity in the solution [1] | remaining fluorescence intensity at plate bottom after antigen binding (% of before) (Anti-HRP antibody(r)) [%] | Bottom (B) of microplate Change (%) (Anti-HRP antibody(r)) | fluorescence intensity Bottom (B) of microplate After antigen binding (Anti-HRP antibody(r)) | fluorescence intensity Bottom (B) of microplate Before antigen binding (Anti-HRP antibody(r)) | fluorescence intensity In solution (S) After antigen binding (Anti-HRP antibody(r)) | fluorescence intensity In solution (S) Before antigen binding (Anti-HRP antibody(r)) | fluorescence intensity remaining at bottom of plate after antigen (% of before) (Anti-HBsAg antibody(g)) [%] | Bottom (B) of microplate Change (%) (Anti-HBsAg antibody(g)) | fluorescence intensity Bottom (B) of microplate After antigen binding (Anti-HBsAg antibody(g)) | fluorescence intensity Bottom (B) of microplate Before antigen binding (Anti-HBsAg antibody(g)) | fluorescence intensity In solution (S) After antigen binding (Anti-HBsAg antibody(g)) | fluorescence intensity In solution (S) Before antigen binding (Anti-HBsAg antibody(g)) | Bottom (B) of microplate Change (%) (Anti-hCG antibody(m)) | In solution (S) Change (%) (Anti-hCG antibody(m)) | fluorescence intensity Bottom (B) of microplate After antigen binding (Anti-hCG antibody(m)) | fluorescence intensity Bottom (B) of microplate Before antigen binding (Anti-hCG antibody(m)) | fluorescence intensity In solution (S) After antigen binding (Anti-hCG antibody(m)) | fluorescence intensity In solution (S) Before antigen binding (Anti-hCG antibody(m)) | further results
1 | TYLEWYPQKPGQSPKLLIYK [L1, TYLEW YPQKP GQSPK LLIYK] | 84.8 | 1,032% | 12.7 | −87.3 | 1990 | 15608 | 12280 | 2687 | 48.7 | −51.3 | 5388 | 11062 | 20501 | 2779 | −61.6 | +187% | 1777 | 4630 | 3580 | 1248 | FRET intensity (H2 peptide): increased; Bottom (B) of microplate Change (%) (Anti-CRP antibody(r)): −48.6%; In solution (S) Change (%) (Anti-CRP antibody(r)): +778%; fluorescence intensity Bottom (B) of microplate After antigen binding (Anti-CRP antibody(r)): 3456; fluorescence intensity Bottom (B) of microplate Before antigen binding (Anti-CRP antibody(r)): 6719; fluorescence intensity In solution (S) After antigen binding (Anti-CRP antibody(r)): 6505; fluorescence intensity In solution (S) Before antigen binding (Anti-CRP antibody(r)): 741; fluorescence intensity in the solution depending on the concentration of the antigen (HRP) [2]: increase; Kd [2]: 3.29 µM; fluorescence signal in pH range required for immunoassay of HBsAg in human serum [3]: almost the same fluorescence signal; selectivity among the four antigens (HRP, CRP, HBsAg, and hCG): highest selectivity
2 | VYYCAREPTGTGIYFDVWGK [H2, VYYCA REPTG TGIYF DVWGK] | 58.7 | 2,356% | 14.8 | −85.2 | 1806 | 122230 | 18128 | 2272 | 63.9 | −36.1 | 18773 | 29367 | 9136 | 1784 | −88.5 | +416% | 23320 | 23320 | 8545 | 1654 | Bottom (B) of microplate Change (%) (Anti-CRP antibody(r)): −39.5%; In solution (S) Change (%) (Anti-CRP antibody(r)): +677%; fluorescence intensity Bottom (B) of microplate After antigen binding (Anti-CRP antibody(r)): 22205; fluorescence intensity Bottom (B) of microplate Before antigen binding (Anti-CRP antibody(r)): 22205; fluorescence intensity In solution (S) After antigen binding (Anti-CRP antibody(r)): 16311; fluorescence intensity In solution (S) Before antigen binding (Anti-CRP antibody(r)): 2099; fluorescence intensity in the solution depending on the concentration of the antigen (HRP) [2]: increase; Kd [2]: 3.11 µM; net charge [4]: 0.5
